Data published in PubChem BioAssay (NCI).
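Results reflect a 48-hour exposure of cells in 96-well plates to compound at five concentrations. The concentration for 50% growth inhibition is given as GI50. TGI marks complete inhibition of growth.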

How the values were obtained:
Experiment in all cases: growth of human tumour cells (NCI), 48 h
[1] = test system: COLO 205 colon
[2] = test system: NCI-H522 lung
[3] = test system: SK-MEL-5 melanoma
[4] = test system: MOLT-4 leukemia
[5] = test system: HCT-116 colon
[6] = test system: U251 CNS
[7] = test system: HOP-62 NSCLC
[8] = test system: HCC-2998 colon
[9] = test system: KM12 colon
[10] = test system: SN12C renal
[11] = test system: SF-295 CNS
[12] = test system: NCI-H23 lung
[13] = test system: SW-620 colon
[14] = test system: SF-268 CNS
[15] = test system: NCI-H460 lung
[16] = test system: SK-OV-3 ovarian
[17] = test system: SNB-19 CNS
[18] = test system: CAKI-1 renal

`[Cl-].[Rh+3].c1ccc(-c2ccnc3c2ccc2c(-c4ccccc4)ccnc23)cc1.c1ccc(-c2ccnc3c2ccc2c(-c4ccccc4)ccnc23)cc1.c1ccc(-c2ccnc3c2ccc2c(-c4ccccc4)ccnc23)cc1` was tested, and the TGI [1] was 43.3 µM, the TGI [2] was greater than 85.1 µM and the TGI [3] was 50.3 µM. It also gave a TGI [4] greater than 100 µM, a TGI [5] greater than 100 µM and a TGI [6] greater than 100 µM. The TGI [7] was greater than 100 µM, the TGI [8] was 50 µM and the TGI [9] was 19.7 µM. For the same compound, the TGI [10] was greater than 100 µM, the GI50 [11] was 31.3 µM and the TGI [11] was greater than 100 µM. For the same compound, the TGI [12] was greater than 100 µM, the TGI [13] was greater than 100 µM and the TGI [14] was greater than 100 µM. It also gave a TGI [15] greater than 100 µM, a TGI [16] greater than 100 µM and a TGI [17] greater than 100 µM. It also gave a GI50 [18] of 60.5 µM and a TGI [18] greater than 100 µM.

With `C/C=C(/C)C(=O)O[C@@H]1c2c(C)coc2C[C@H]2CC[C@H](O)[C@H](C)[C@]21C` the TGI [1] was greater than 100 µM, the TGI [2] was greater than 100 µM and the TGI [3] was greater than 100 µM. For the same compound, the TGI [4] was greater than 100 µM, the TGI [5] was greater than 100 µM and the TGI [6] was greater than 100 µM. For the same compound, the TGI [7] was greater than 100 µM, the TGI [8] was greater than 100 µM and the TGI [9] was greater than 100 µM. For the same compound, the TGI [10] was greater than 100 µM, the TGI [11] was greater than 100 µM and the TGI [12] was greater than 100 µM. For the same compound, the TGI [13] was greater than 100 µM, the TGI [14] was greater than 100 µM and the TGI [15] was greater than 100 µM. It also gave a TGI [16] greater than 100 µM, a TGI [17] greater than 100 µM and a TGI [18] greater than 100 µM.

`COC(=O)[C@@H]1c2cc3c(c(O)c2[C@@H](OC)C[C@@]1(C)O)C(=O)c1c(O)cc2c(c1C3=O)OC1O[C@@]2(C)[C@H](O)[C@@H](N(C)C)[C@@H]1O` was tested, and the TGI [1] was 1.98 µM, the TGI [2] was 1.9 µM and the TGI [3] was 1.05 µM. The TGI [4] was greater than 150 µM, the TGI [5] was 1.58 µM and the TGI [6] was 1.92 µM. It also gave a TGI [7] of 1.06 µM, a TGI [8] of 1.37 µM and a TGI [9] of 2.34 µM. It also gave a TGI [10] of 2.1 µM, a TGI [11] of 0.97 µM and a TGI [12] of 1.49 µM. For the same compound, the TGI [13] was 2.21 µM, the TGI [14] was 3.02 µM and the TGI [15] was 0.488 µM. For the same compound, the TGI [16] was 3.94 µM, the TGI [17] was 2.37 µM and the TGI [18] was 0.749 µM.

For `O=C(O)Cc1ccc(N2N=C(c3ccccc3)CC2=O)cc1`, the TGI [1] was greater than 100 µM, the TGI [2] was greater than 100 µM and the TGI [3] was greater than 100 µM. For the same compound, the TGI [4] was greater than 100 µM, the TGI [5] was greater than 100 µM and the TGI [6] was greater than 100 µM. For the same compound, the TGI [7] was greater than 100 µM, the TGI [8] was greater than 100 µM and the TGI [9] was greater than 100 µM. For the same compound, the TGI [10] was greater than 100 µM, the TGI [11] was greater than 100 µM and the TGI [12] was greater than 100 µM. For the same compound, the TGI [13] was greater than 100 µM, the TGI [14] was greater than 100 µM and the TGI [15] was greater than 100 µM. It also gave a TGI [16] greater than 100 µM, a TGI [17] greater than 100 µM and a TGI [18] greater than 100 µM.

With `C=C(C)C1Cc2c(cc(O)c3c(=O)c4ccccc4n(C)c23)O1` (stereo not given) the TGI [1] was greater than 100 µM, the TGI [2] was 66.1 µM and the TGI [3] was greater than 100 µM. It also gave a TGI [4] greater than 100 µM, a TGI [5] greater than 100 µM and a TGI [6] greater than 100 µM. For the same compound, the TGI [7] was 61.3 µM, the TGI [8] was greater than 100 µM and the TGI [9] was greater than 100 µM. The TGI [10] was greater than 100 µM, the TGI [11] was 79.6 µM and the TGI [12] was greater than 100 µM. The TGI [13] was greater than 100 µM, the TGI [14] was 73 µM and the TGI [15] was greater than 100 µM. For the same compound, the TGI [16] was 84.6 µM, the TGI [17] was 34.5 µM and the TGI [18] was 56.7 µM.

In the case of `CC(C)(C)OC(=O)C1=C(C(=O)OC(C)(C)C)SC2(S1)C(C(=O)OC(C)(C)C)=C(C(=O)OC(C)(C)C)Sc1c2ssc1=O`, the TGI [1] is reported as greater than 100 µM, the TGI [2] is reported as greater than 100 µM and the TGI [3] is reported as greater than 100 µM. It also gave a TGI [4] of 95.9 µM, a TGI [5] greater than 100 µM and a TGI [6] greater than 100 µM. For the same compound, the TGI [7] was greater than 100 µM, the TGI [8] was greater than 100 µM and the TGI [9] was greater than 100 µM. It also gave a TGI [10] greater than 100 µM, a TGI [11] greater than 100 µM and a TGI [12] greater than 100 µM. The TGI [13] was greater than 100 µM, the TGI [14] was greater than 100 µM and the TGI [15] was greater than 100 µM. It also gave a TGI [16] greater than 100 µM, a TGI [17] greater than 100 µM and a TGI [18] greater than 100 µM.
